Assays:
Format in all cases: functional
[1] = system: Human immunodeficiency virus 1; experiment: Antiviral activity against Human immunodeficiency virus 1 clone 18 harboring integrase S17N, I84I, T124N, T125A, M154I, S195C, V201I, S230G mutant gene relative to wild type HIV1
[2] = system: Human immunodeficiency virus 1; experiment: Antiviral activity against Human immunodeficiency virus 1 3B harboring integrase E92G mutant infected in human MT4 cells assessed as inhibition of virus induced cytopathic effect relative to wild type HIV1
[3] = system: Human immunodeficiency virus 1; experiment: Antiviral activity against Human immunodeficiency virus 1 3B harboring integrase M154I mutant infected in human MT4 cells assessed as inhibition of virus induced cytopathic effect relative to wild type HIV1
[4] = system: Human immunodeficiency virus 1; experiment: Antiviral activity against Human immunodeficiency virus 1 clone 12 harboring integrase E11D, S17T, L45V, M50T, I72V, L74I, K111T, S119G, T125A relative to wild type HIV1
[5] = system: Human immunodeficiency virus 1; experiment: Antiviral activity against Human immunodeficiency virus 1 3B harboring integrase S230N mutant infected in human MT4 cells assessed as inhibition of virus induced cytopathic effect relative to wild type HIV1
[6] = system: Human immunodeficiency virus 1; experiment: Antiviral activity against Human immunodeficiency virus 1 clone 11 harboring integrase S17N, I84I, T124N, T125A, M154I, S195C mutant gene relative to wild type HIV1
[7] = system: Human immunodeficiency virus 1; experiment: Antiviral activity against Human immunodeficiency virus 1 3B harboring integrase K156N mutant infected in human MT4 cells assessed as inhibition of virus induced cytopathic effect relative to wild type HIV1
[8] = system: Human immunodeficiency virus 1; experiment: Antiviral activity against Human immunodeficiency virus 1 clone 16 harboring integrase S17N, T124N, T125A, M154I, S195C, V201I mutant gene relative to wild type HIV1
[9] = system: Human immunodeficiency virus 1; experiment: Antiviral activity against Human immunodeficiency virus 1 3B harboring integrase T206S mutant infected in human MT4 cells assessed as inhibition of virus induced cytopathic effect relative to wild type HIV1
[10] = system: Human immunodeficiency virus 1; experiment: Antiviral activity against Human immunodeficiency virus 1 clone 9 harboring integrase S17N, I84I, T124N, T125A, M154I, A175T, S195C mutant gene relative to wild type HIV1
[11] = system: Human immunodeficiency virus 1; experiment: Antiviral activity against Human immunodeficiency virus 1 clone 13 harboring integrase R20K, A23V, T124N, G193E, V201I, T206S, I268V, I220V mutant gene relative to wild type HIV1
[12] = system: Human immunodeficiency virus 1; experiment: Antiviral activity against Human immunodeficiency virus 1 3B harboring integrase V201I mutant infected in human MT4 cells assessed as inhibition of virus induced cytopathic effect relative to wild type HIV1
[13] = system: Human immunodeficiency virus 1; experiment: Antiviral activity against Human immunodeficiency virus 1 clone 9 harboring integrase E11D, S17T, L45V, M50T, I72V, L74I, K111T, S119G, relative to wild type HIV1
[14] = system: Human immunodeficiency virus 1; experiment: Antiviral activity against Human immunodeficiency virus 1 3B harboring integrase L68V mutant infected in human MT4 cells assessed as inhibition of virus induced cytopathic effect relative to wild type HIV1
[15] = system: Human immunodeficiency virus 1; experiment: Antiviral activity against Human immunodeficiency virus 1 clone 8 harboring integrase E11D, S17T, L45V, M50T, S57G, L74I, K111T, S119G, T125A relative to wild type HIV1
[16] = system: Human immunodeficiency virus 1; experiment: Antiviral activity against Human immunodeficiency virus 1 3B harboring integrase V151I mutant infected in human MT4 cells assessed as inhibition of virus induced cytopathic effect relative to wild type HIV1
[17] = system: Human immunodeficiency virus 1; experiment: Antiviral activity against Human immunodeficiency virus 1 clone 4 harboring integrase S17N, S57G, I84I, T124N, T125A, M154I, S195C mutant gene relative to wild type HIV1
[18] = system: Human immunodeficiency virus 1; experiment: Antiviral activity against Human immunodeficiency virus 1 clone 19 harboring integrase R20K, A23V, G70E, T124N, I141V, G193E, V201I, T206S, I220V mutant gene relative to wild type HIV1
[19] = system: Human immunodeficiency virus 1; experiment: Antiviral activity against Human immunodeficiency virus 1 clone 20 harboring integrase E11D, S17T, L45V, M50T, I72V, L74I, K111T, T125A, I217V relative to wild type HIV1
[20] = system: Human immunodeficiency virus 1; experiment: Antiviral activity against Human immunodeficiency virus 1 clone 17 harboring integrase S17N, T124N, T125A, M154I, S195C mutant gene relative to wild type HIV1
[21] = system: Human immunodeficiency virus 1; experiment: Antiviral activity against Human immunodeficiency virus 1 clone 15_19 harboring integrase T97A mutant and T97A, Y143R site-directed mutation relative to wild type HIV1
[22] = system: Human immunodeficiency virus 1; experiment: Antiviral activity against Human immunodeficiency virus 1 3B harboring integrase L74I mutant infected in human MT4 cells assessed as inhibition of virus induced cytopathic effect relative to wild type HIV1
[23] = system: Human immunodeficiency virus 1; experiment: Antiviral activity against Human immunodeficiency virus 1 clone 13 harboring integrase E11D, S17T, L45V, M50T, I72V, L74I, K111T, S119G, T125A relative to wild type HIV1
[24] = system: Human immunodeficiency virus 1; experiment: Antiviral activity against Human immunodeficiency virus 1 3B harboring integrase E157Q mutant infected in human MT4 cells assessed as inhibition of virus induced cytopathic effect relative to wild type HIV1

Structure (SMILES) | fold change (FC) [1] | fold change (FC) [2] | fold change (FC) [3] | fold change (FC) [4] | fold change (FC) [7] | fold change (FC) [8] | fold change (FC) [10] | fold change (FC) [11] | fold change (FC) [14] | fold change (FC) [18] | fold change (FC) [19] | fold change (FC) [21] | also measured
COc1cc2c(cc1Cc1cccc(Cl)c1F)c(=O)c(C(=O)O)cn2[C@H](CO)C(C)C [ELVITEGRAVIR] | 0.8 | 13 | 1 | 1 | 0.7 | 1 | 1.3 | 0.8 | 1.1 | 1.1 | 1 | 9.4 | fold change (FC) [5]: 0.8; fold change (FC) [6]: 0.9; fold change (FC) [9]: 1.1; fold change (FC) [12]: 0.9; fold change (FC) [13]: 1; fold change (FC) [15]: 0.8; fold change (FC) [16]: 0.6; fold change (FC) [17]: 1.4; fold change (FC) [20]: 1
Cc1nnc(C(=O)NC(C)(C)c2nc(C(=O)NCc3ccc(F)cc3)c(O)c(=O)n2C)o1 [RALTEGRAVIR] | 1.3 | 1.8 | 0.8 | 1.1 | 0.4 | 1.3 | 1.1 | 0.8 | 0.4 | 1.2 | 1.5 | 88.2 | fold change (FC) [22]: 1.2; fold change (FC) [23]: 2; fold change (FC) [24]: 1.2

From ChEMBL document CHEMBL1687760, “Secondary integrase resistance mutations found in HIV-1 minority quasispecies in integrase therapy-naive patients have little or no effect on susceptibility to integrase inhibitors” (Antimicrob Agents Chemother, 2010)
